Our source for the TGI values is PubChem BioAssay (NCI).

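Briefly, cells in 96-well plates were exposed to five compound concentrations for 48 h, and endpoints were estimated by linear interpolation. TGI: total growth inhibition.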

Among the test systems are SR leukemia; MOLT-4 leukemia; SN12C renal; MDA-MB-435; 786-0 renal; HOP-92 NSCLC; CCRF-CEM leukemia; HCT-15 colon; LOX IMVI melanoma; MDA-N; EKVX NSCLC.
Common to all, as to test: NCI-60 cell line screen, 48 h

In the case of `COc1ccc(C(O)c2ccc3c(c2)OCO3)cc1` (stereo not given), the TGI with SR leukemia, with MOLT-4 leukemia, with SN12C renal, in the experiment with MDA-MB-435, with 786-0 renal and in the experiment on HOP-92 NSCLC was over 100 µM each time. Also, the TGI in the experiment with CCRF-CEM leukemia, in the experiment with HCT-15 colon, in the experiment with LOX IMVI melanoma, in the experiment on MDA-N and with EKVX NSCLC was over 100 µM each time.

On to `C/C(O)=C(\C=N\C(N)=S)C(=O)Nc1ccccc1C`, for which the TGI with SR leukemia, in the experiment on MOLT-4 leukemia, in the experiment with SN12C renal, in the experiment with MDA-MB-435, in the experiment on 786-0 renal and in the experiment with HOP-92 NSCLC was over 100 µM in each case. For the same compound, the TGI with CCRF-CEM leukemia, in the experiment on HCT-15 colon, in the experiment with LOX IMVI melanoma, with MDA-N and in the experiment with EKVX NSCLC was over 100 µM throughout.

With `CC(=O)/C=C/C=C(\C)CC/C=C(\C)CC(C)C`, the TGI in the experiment with SR leukemia was found to be 39.1 µM; with MOLT-4 leukemia, 41.9 µM; in the experiment on SN12C renal, 96.2 µM; in the experiment with MDA-MB-435, 77.1 µM; with 786-0 renal, 97.3 µM; in the experiment on HOP-92 NSCLC, 27.4 µM. The TGI in the experiment on CCRF-CEM leukemia was 37 µM; in the experiment with HCT-15 colon, 30.6 µM; with LOX IMVI melanoma, 34 µM; with MDA-N, over 100 µM; with EKVX NSCLC, over 100 µM.

For `COC(=O)[C@H](C)N1C(=O)N[C@@H](C(C)C)C1=O`, the TGI with SR leukemia, with MOLT-4 leukemia, in the experiment with SN12C renal, in the experiment on MDA-MB-435, in the experiment with 786-0 renal and in the experiment on HOP-92 NSCLC was over 100 µM each time. For the same compound, the TGI with CCRF-CEM leukemia, in the experiment on HCT-15 colon, with LOX IMVI melanoma, in the experiment with MDA-N and in the experiment with EKVX NSCLC was over 100 µM throughout.

`Clc1nc(-[n+]2ccc(-c3ccncc3)cc2)nc(Nc2ccccc2)c1Cl`: the TGI in the experiment with SR leukemia is 77.4 µM; in the experiment with MOLT-4 leukemia it was over 100 µM; with SN12C renal, over 100 µM; in the experiment on MDA-MB-435, over 100 µM; with 786-0 renal, over 100 µM; in the experiment with HOP-92 NSCLC, over 100 µM. For the same compound, the TGI is 90.2 µM in the experiment with CCRF-CEM leukemia; over 100 µM in the experiment on HCT-15 colon; over 100 µM in the experiment with LOX IMVI melanoma; over 100 µM with MDA-N; over 100 µM with EKVX NSCLC.

For `Cc1csc2c1C(=O)c1ccsc1C2=O`, the TGI with SR leukemia was over 45 µM; in the experiment on MOLT-4 leukemia, 27.2 µM; in the experiment on SN12C renal, 4.83 µM; in the experiment with MDA-MB-435, 0.447 µM; in the experiment on 786-0 renal, 16 µM; with HOP-92 NSCLC, 12.5 µM. For the same compound, the TGI with CCRF-CEM leukemia is over 100 µM; with HCT-15 colon, 3.51 µM; in the experiment with LOX IMVI melanoma, 3.37 µM; with MDA-N, 0.889 µM; in the experiment with EKVX NSCLC, 20 µM.

For the compound `C#CCNC(Cc1cnc[nH]1)C(=O)O` (stereo not given), the TGI with SR leukemia, with MOLT-4 leukemia, in the experiment on SN12C renal, in the experiment with MDA-MB-435, in the experiment with 786-0 renal and with HOP-92 NSCLC was over 100 µM each time. Besides, the TGI in the experiment with CCRF-CEM leukemia, in the experiment with HCT-15 colon, with LOX IMVI melanoma, in the experiment with MDA-N and with EKVX NSCLC was over 100 µM throughout.

`CC(CCC(=O)O)[C@H]1CCC2[C@H]3C(CC[C@@]21C)[C@@]1(C)CCC(O)C[C@H]1C[C@@H]3O` (stereo not given in full): the TGI in the experiment on SR leukemia, in the experiment with MOLT-4 leukemia, in the experiment with SN12C renal, in the experiment on MDA-MB-435, in the experiment on 786-0 renal and in the experiment on HOP-92 NSCLC was over 100 µM throughout. The TGI in the experiment on CCRF-CEM leukemia, with HCT-15 colon, in the experiment on LOX IMVI melanoma, in the experiment with MDA-N and in the experiment on EKVX NSCLC was over 100 µM in each case.

Turning to `OC1CCCC1C(O)(C(F)(F)F)C(F)(F)F` (stereo not given), the TGI in the experiment with SR leukemia, with MOLT-4 leukemia, with SN12C renal, in the experiment with MDA-MB-435, in the experiment with 786-0 renal and in the experiment on HOP-92 NSCLC was over 100 µM each time. Further, the TGI in the experiment with CCRF-CEM leukemia, in the experiment with HCT-15 colon, with LOX IMVI melanoma, in the experiment on MDA-N and with EKVX NSCLC was over 100 µM throughout.

In the case of `O=C1NC(=S)N/C1=C/c1ccccc1O`, the TGI in the experiment on SR leukemia, with MOLT-4 leukemia, in the experiment on SN12C renal, in the experiment with MDA-MB-435, in the experiment on 786-0 renal and with HOP-92 NSCLC was over 100 µM throughout. Moreover, the TGI with CCRF-CEM leukemia, in the experiment on HCT-15 colon, with LOX IMVI melanoma, in the experiment with MDA-N and in the experiment on EKVX NSCLC was over 100 µM each time.
